Results on one compound are retold here after publication PMC10967572, “Induction of Oxidative Stress and Ferroptosis in Triple-Negative Breast Cancer Cells by Niclosamide via Blockade of the Function and Expression of SLC38A5 and SLC7A11” (Antioxidants, 2024).

The test system of one data set is GPX4, FTH1, p-S6K. The data set is described as follows: Western blot of GPX4, ferritin heavy chain and p-S6K in TNBC cells. The format is cell-based, human. Conditions: niclosamide 2 μM, 24 h. How it is done:
(§1) Cells and tumor tissues were lysed in Pierce™ RIPA buffer (ThermoFisher Scientific, Waltham, MA, USA) supplemented with Halt™ Protease and Phosphatase Inhibitor Cocktail (ThermoFisher Scientific, Waltham, MA, USA). Homogenates were centrifuged, and supernatants were used for protein measurement via Pierce™ BCA Protein Assay Kit (ThermoFisher Scientific, Waltham, MA, USA). […] Western blot samples were prepared in Laemmli sample buffer (Bio-Rad Laboratories, Hercules, CA, USA). They were loaded onto a SDS–PAGE gel and transferred onto a PVDF membrane (Bio-Rad Laboratories, Hercules, CA, USA). The membrane was blocked and antibodies diluted in 5% nonfat dry milk (Bio-Rad Laboratories, Hercules, CA, USA) or in 5% bovine serum albumin (Irvine Scientific, Santa Ana, CA, USA) were used. Protein bands were visualized using Pierce™ ECL Western Blotting Substrate (ThermoFisher Scientific, Waltham, MA, USA) and developed on the autoradiography film (Santa Cruz, Dallas, TX, USA). Primary antibodies were purchased either from Cell Signaling (Danvers, MA, USA) [anti-GPX4 (#52455), anti-FTH (#4393), anti-HSP60 (#12165), anti-phospho-p70S6K (#9205), anti-p70S6K (#2708)] or from Abcam (Waltham, MA, USA) [Nrf2 (#ab62352)]. Secondary antibody Horseradish peroxidase-conjugated goat anti-rabbit IgG (#1706515) was purchased from Bio-Rad Laboratories (Hercules, CA, USA). For quantification of protein levels by the densitometric analysis, the experiment was carried out in triplicate and the data were collected from the resultant three Western blots.

Data set [1] concerns TNBC cells (MB231 and TXBR100). Put plainly: Colony formation (clonogenic) assay. The format is cell-based, human. Conditions: niclosamide 0.5 μM, 10 days. An excerpt: We performed the colony formation (clonogenic) assay with different doses of niclosamide on two different TNBC cell lines. Initial seeding was done with 500 cells/well and culture was continued for 10 days with culture medium replaced with fresh medium with freshly prepared niclosamide every other day. At the end of the 10-day time period, the medium was removed and the colonies were fixed with ice-cold methanol/acetone and then stained with Giemsa stain.

Data set [2] deals with MB231 and TXBR100 cells. The data set is described as follows: Lipid peroxidation (malondialdehyde) assay. Conditions: niclosamide 2.5 and/or 5 μM, 24 h. The format is cell-based, human. Here is the method: (§2) Control and niclosamide-treated cells were used for measurement of cellular glutathione levels as instructed in the manufacturer’s protocol (GSH-Glo assay, Promega, Madison, WI, USA). The levels of malondialdehyde were measured using lipid peroxidation kit [Lipid Peroxidation (MDA) Assay Kit (MAK085), Millipore-sigma, St. Louis, MO, USA].

Another data set deals with MB231 xenograft tumors. Put plainly: qRT-PCR and Western blot of xenograft tumor tissue. The format is in vivo, mouse. Conditions: niclosamide 4 mg/kg daily i.p. Here is the method: (§3) Total RNA was extracted from cells using TRIzol Reagent (ThermoFisher Scientific, Waltham, MA, USA) and the RNA was reverse-transcribed using a high-capacity cDNA reverse transcription kit (ThermoFisher Scientific, Waltham, MA, USA) according to the manufacturer’s protocol. Quantitative RT-PCR was performed with Takara Taq Hot Start Version (TaKaRa Biotechnology, Shiga, Japan) or Power SYBR Green PCR master mix (Bio-Rad, Hercules, CA, USA). Primer sequences are shown in Supplemental Table S1. The relative mRNA expression was determined by the 2^−∆∆Ct method. Additionally, 18S was used as a housekeeping gene for normalization.
as §1
(§4) Female athymic nude mice (4-week-old) were purchased from Jackson Laboratories and housed under standard conditions. MDA-MB231 cells were injected into lower mammary fat pad (5 × 10^6 cells). All cells were suspended in serum-free media and Matrigel (1:1 ratio), with 100 µL of suspension being injected into each mouse. Mice were treated by daily intraperitoneal injection of niclosamide (4 mg/kg/day) and vehicle (dimethylsulfoxide) control. The treatment began when the tumor size was 100–150 mm^3. Tumor size was measured biweekly with a caliper, with tumor volume calculated using the formula (width^2 × length)/2. Tumors were allowed to grow for 7 weeks; mice were then euthanized via isoflurane […] and tumors harvested. The animal study protocol was approved by the Texas Tech University Health Sciences Center Institutional Animal Care and Use Committee (IACUC protocol number 18005) and the experiments were conducted in the same institution. RNA and protein were prepared from the tumor tissue for qRT-PCR and Western blotting.

Details of data set [3]: method as in PMID 31078739, PMID 33737681. Conditions: oral; cited from earlier work.
Data set [4] relates to MB231 and TXBR100 cells. The data set is described as follows: Cellular iron assay (Ferro-orange). The format is cell-based, human. Conditions: niclosamide 5 μM, 30 min. Here is the method: (§5) Lipid radical (ferroptosis) assay and iron assay were performed as follows. Cells were cultured on a 25 mm glass coverslip until they reached 60–70% confluency (~48 h). At the time of the experiment, cells were washed with NaCl buffer, pH 7.5 and then incubated with 1 µM of LipiRadical Green (a lipid radical detection reagent, FDV-0042, Funakoshi, Tokyo, Japan) or Ferro-orange (an iron detection probe, F374, Dojindo, Rockville, MD, USA) in NaCl buffer, pH 7.5 for 20 min and then washed with NaCl buffer, pH 7.5. To analyze the effects of modifiers of iron levels and lipid peroxidation, the cells were co-treated with the modifiers and the respective fluorescent probe for 20 min and then washed. The glass coverslip containing the cells was then probed under an inverted microscope. The fluorescence imaging was captured using a Nikon T1-E microscope with A1 confocal super-resolution module (Nikon, Dallas, TX, USA), with a 60× objective, at 488 nm. The images represent a maximum projection intensity derived from a Z-stack. The fluorescence quantification was performed by measuring the corrected total cell fluorescence (CTCF) using Image J (version: 2.14.0/1.54f) and the following formula; CTCF = (integrated density) − (area of cell of interest) × (mean fluorescence of background).

For data set [5], the system named is MB231 cells and TXBR100 cells. The data set is described as follows: Lipid radical (ferroptosis) assay with LipiRadical Green. The format is cell-based, human. Conditions: niclosamide 5 μM; MB231 30 min, TXBR100 2 h. Here is the method: as §5
The test system of data set [6] is MB231 cells and TXBR100 cells. Put plainly: Cellular glutathione levels (GSH-Glo assay). The format is cell-based, human. Conditions: niclosamide 2 μM, 24 h; MB231 and TXBR100. Here is the method: as §2
In another data set the test system is MB231 xenograft. The data set is described as follows: Mouse xenograft tumor growth. The format is in vivo. Conditions: MB231 xenograft in nude mice; niclosamide 4 mg/kg daily intraperitoneal. How it is done: as §4
The subject of another data set is Nrf2. Put plainly: Nrf2 expression and subcellular localization (immunostaining, Western blot, qRT-PCR) in TNBC cells. The format is cell-based, human. Conditions: niclosamide 2 μM, 24 h; for Nrf2 protein level: Western blot; for Nrf2 mRNA level: qRT-PCR. Here is the method: as §3, §1

Consider `O=C(Nc1ccc([N+](=O)[O-])cc1Cl)c1cc(Cl)ccc1O` [niclosamide], for which the “glutathione peroxidase 4 protein levels” value in the data set on GPX4, FTH1, p-S6K (MB231 and TXBR100) is reported as “decreased”. For the same compound, the ferritin levels entry in the data set with GPX4, FTH1, p-S6K (MB231 and TXBR100 (more pronounced in TXBR100)) is “lower”. Besides, the “p70S6K and phospho-p70S6K levels (mTOR signaling)” value with GPX4, FTH1, p-S6K (both TNBC cell lines) is “profound decrease”. In [1], the “decrease in colony formation” value is reported as over 50%. Moreover, the “malondialdehyde levels (lipid peroxidation)” value in the data set with MB231 and TXBR100 cells [2] is “increase”. In the data set on MB231 xenograft tumors (Western blot), the “Nrf2 protein levels in tumors” value was “markedly decreased” and the “ferritin heavy chain protein levels in tumors” value is recorded as “decreased”. Moreover, in the data set with MB231 xenograft tumors (qRT-PCR), the “Nrf2 mRNA level in tumors” value is recorded as “markedly decreased”, the “SLC7A11 mRNA level in tumors” value is “markedly decreased” and the “SLC38A5 mRNA level in tumors” value was “markedly decreased”. For the same compound, in [3], the “bioavailability when given orally” value is “low”. The cellular iron levels result in the data set with MB231 and TXBR100 cells [4] is “increased”. Also, the “ferroptosis (lipid radical fluorescence)” value in data set [5] is on record as “induced ferroptosis”. The “decrease in glutathione levels” value in [6] is reported as 60–70%. Moreover, in the data set with MB231 xenograft, the “growth of the tumors” value is recorded as “drastic reduction”. In the data set on Nrf2 (MB231), the Nrf2 protein level result is listed as “decreased” and the “Nrf2 mRNA level” value is recorded as “decreased”. Further, in the data set with Nrf2 (TXBR100), the Nrf2 protein level result is “significantly decreased” and the “Nrf2 mRNA level” value is recorded as “did not alter”.
